Holding throughout (conditions): Hippocampus
Assay [1] addresses High-affinity choline transporter 1 (Rattus norvegicus) (UniProt Q9JMD7). Briefly: Effect on uptake amount of [3H]choline in the hippocampal synaptosomes of AF64A-treated rats at a concentration of 10e-6 M.
Assay [2] shares this target. Nature of the assay: Effect on uptake amount of [3H]choline in the hippocampal synaptosomes of AF64A-treated rats at a concentration of 10e-7 M.
The target is the same in assay [3]. Briefly: Effect on uptake amount of [3H]choline in the hippocampal synaptosomes of AF64A-treated rats at a concentration of 10e-5 M.

Chain of High-affinity choline transporter 1 (Rattus norvegicus) (Q9JMD7 whole entry, looked up): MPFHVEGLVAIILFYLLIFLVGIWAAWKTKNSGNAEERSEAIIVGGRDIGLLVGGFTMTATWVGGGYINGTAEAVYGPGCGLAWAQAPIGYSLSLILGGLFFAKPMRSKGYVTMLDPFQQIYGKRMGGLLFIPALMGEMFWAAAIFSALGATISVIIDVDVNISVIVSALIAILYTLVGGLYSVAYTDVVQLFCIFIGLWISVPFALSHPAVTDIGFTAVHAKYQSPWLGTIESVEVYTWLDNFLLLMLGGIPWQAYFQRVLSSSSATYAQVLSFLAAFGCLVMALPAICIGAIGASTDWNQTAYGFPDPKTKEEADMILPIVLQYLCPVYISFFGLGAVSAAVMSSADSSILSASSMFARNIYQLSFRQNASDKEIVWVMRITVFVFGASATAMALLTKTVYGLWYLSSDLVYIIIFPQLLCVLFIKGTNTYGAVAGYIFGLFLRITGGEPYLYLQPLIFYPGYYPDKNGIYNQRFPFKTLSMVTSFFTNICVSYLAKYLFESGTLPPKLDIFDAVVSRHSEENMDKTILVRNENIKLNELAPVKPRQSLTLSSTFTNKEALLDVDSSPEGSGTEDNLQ

As for `Nc1c2c(nc3ccccc13)CCCC2`, the figures for the HACU improvement in assay [1], in assay [2] and in assay [3] were 8%, 8% and -13%, respectively.

Take `O=C(CN1CCCCC1=O)Nc1c2c(nc3ccccc13)CCCC2`: the HACU improvement in assay [1] was 2%; in assay [2] it was -3%; in assay [3] it was 5%.

Regarding `CCCCCC(=O)Nc1c2c(nc3ccccc13)CCCC2`, the HACU improvement worked out at 5% in assay [1], 11% in assay [2] and 2% in assay [3].

For `O=C(CN1C(=O)CNC1=O)Nc1c2c(nc3ccccc13)CCCC2`, the HACU improvement in assay [1] is 0%; in assay [2], -5%; in assay [3], 16%.

As for `O=C(CN1CCNC1=O)Nc1c2c(nc3ccccc13)CCCC2`, the HACU improvement in assay [1] was determined as 1%; in assay [2], 6%; in assay [3], 25%.

Consider `O=C(CN1CCCC1=O)Nc1c2c(nc3ccccc13)CCCC2`, for which the HACU improvement in assay [1] was 14%; in assay [2], 17%; in assay [3], 13%.

As for `O=C(Cn1ccnc1)Nc1c2c(nc3ccccc13)CCCC2`, the HACU improvement in assay [1] is 14%; in assay [2], 6%; in assay [3], 48%.

Regarding `CN(C)CC(=O)Nc1c2c(nc3ccccc13)CCCC2`, the values for the HACU improvement in assay [1], in assay [2] and in assay [3] were -13%, 0% and -7%, respectively.

`O=C1CN(CC(=O)Nc2c3c(nc4ccccc24)CCCC3)C(=O)N1`: the HACU improvement in assay [1] came out at 11%; in assay [2] it was 15%; in assay [3], 10%.

With `CNCC(=O)Nc1c2c(nc3ccccc13)CCCC2`, the HACU improvement worked out at 18% in assay [1], 8% in assay [2] and 21% in assay [3].

Regarding `O=C(O)CNCC(=O)Nc1c2c(nc3ccccc13)CCCC2`, the HACU improvement in assay [1] was -2%; in assay [2] it was -4%; in assay [3], 27%.

For the compound `O=C(CN1CCCC1)Nc1c2c(nc3ccccc13)CCCC2`, the HACU improvement was -20% in assay [1], 1% in assay [2] and -71% in assay [3].

As for `CC1C(=O)NC(=O)N1CC(=O)Nc1c2c(nc3ccccc13)CCCC2` (stereo not given), the HACU improvement was 2% in assay [1], 4% in assay [2] and 11% in assay [3].

Take `CCC(=O)Nc1c2c(nc3ccccc13)CCCC2`: the HACU improvement in assay [1] was 1%; in assay [2], 3%; in assay [3] it was 3%.

Consider `CC(=O)Nc1c2c(nc3ccccc13)CCCC2`, for which the HACU improvement was -10% in assay [1], -12% in assay [2] and -11% in assay [3].

Turning to `CC(NCC(=O)Nc1c2c(nc3ccccc13)CCCC2)C(=O)O` (stereo not given), the HACU improvement is 6% in assay [1], -7% in assay [2] and 13% in assay [3].

Regarding `CCCCC(=O)Nc1c2c(nc3ccccc13)CCCC2`, the results for the HACU improvement in assay [1], in assay [2] and in assay [3] were -1%, -2% and 18%, respectively.

Take `CC(C)C(=O)Nc1c2c(nc3ccccc13)CCCC2`: the figures for the HACU improvement in assay [1], in assay [2] and in assay [3] were 9%, 12% and 15%, respectively.

Consider `CCCC(=O)Nc1c2c(nc3ccccc13)CCCC2`, for which the HACU improvement in assay [1] amounted to 24%; in assay [2], 13%; in assay [3], 28%.

Take `CC(C)CC(=O)Nc1c2c(nc3ccccc13)CCCC2`: the HACU improvement in assay [1] is -22%; in assay [2], 4%; in assay [3], 0%.

The record behind these values is ChEMBL document CHEMBL1152067, “Design and syntheses of 4-acylaminopyridine derivatives: Novel high affinity choline uptake enhancers I” (Bioorg Med Chem Lett, 1995).
